# Results taken from US20230124862A1, “BISMUTH THIOL COMPOUNDS AND COMPOSITIONS AND METHODS OF TREATING MICROBIAL CO-INFECTIONS” (Microbion Corporation, priority 2020, published 2023).
# Where “and” joins values, the source holds several entries; their conditions need not be identical. Equal values may be shown once. Read-outs that look alike come from different tables or passages of the source.
# What was measured:
# S. aureus [1] = settings: S. aureus MMX 101 (ATCC 29213); cited from earlier work
# S. pneumoniae [2] = settings: S. pneumoniae MMX 6837 (ATCC 49619); cited from earlier work
# S. aureus [3] = assay: Broth microdilution MIC (Example 11); format: cell-based, Staphylococcus aureus; settings: Staphylococcus aureus, ATCC 29213 / MSSA, S. aureus MMX 101 (ATCC 29213), QC, MSSA
# Enterococcus spp. = assay: Broth microdilution MIC (Example 11); format: cell-based, E. faecalis, E. faecium
# P. aeruginosa = assay: Checkerboard FIC/FICI assay; format: cell-based, Pseudomonas aeruginosa; settings: for FICB / MICB: Meropenem in combination with BisEDT; for MIC: Pseudomonas aeruginosa, Meropenem alone (checkerboard with BisEDT), read-out: Drug B MIC
# [4] = system: Burkholderia cepacia complex; assay: Checkerboard FIC/FICI assay; format: cell-based, Burkholderia spp.; settings: for MIC: Meropenem alone, panel with BisEDT, read-out: Drug B MIC
# [5] = system: P. aeruginosa and A. baumannii; settings: P. aeruginosa MMX 103 (ATCC 27853); CLSI QC ranges shown in parenthesis; cited from earlier work
# Enterobacteriaceae = settings: E. coli MMX 102 (ATCC 25922); CLSI QC ranges shown in parenthesis; cited from earlier work
# [6] = system: beta-hemolytic streptococci; assay: Broth microdilution MIC (Example 11); format: cell-based, S. pyogenes, S. agalactiae
# S. pneumoniae [7] = assay: Broth microdilution MIC (Example 11); format: cell-based, Streptococcus pneumoniae
# [8] = E. faecalis MMX 8960, VRE, Lev^R Cip^R Ery^R, read-out: MIC
# [9] = E. faecalis MMX 8962, VRE, Lev^R Cip^R Ery^R, read-out: MIC
# [10] = E. faecium MMX 485, VRE vanA, Lev^R Cip^R Ery^R, read-out: MIC
# [11] = E. faecium MMX 752, VRE vanA, Lev^R Cip^R Ery^R, read-out: MIC
# [12] = P. aeruginosa 6322, one value per panel row C-G
# [13] = P. aeruginosa 7745, by checkerboard
# [14] = P. aeruginosa 8798, by checkerboard
# [15] = P. aeruginosa 9108, by checkerboard
# [16] = B. cepacia 1793, Meropenem in combination with BisEDT, by checkerboard
molecule,measurement,setting,value
CC[C@H]1OC(=O)[C@H](C)[C@@H](O[C@H]2C[C@@](C)(OC)[C@@H](O)[C@H](C)O2)[C@H](C)[C@@H](O[C@@H]2O[C@H](C)C[C@H](N(C)C)[C@H]2O)[C@](C)(O)C[C@@H](C)C(=O)[C@H](C)[C@@H](O)[C@]1(C)O [Erythromycin],CLSI QC range of MIC,S. aureus [1],(0.25-1) μg/mL
same,CLSI QC range of MIC,S. pneumoniae [2],(0.03-0.12) μg/mL
same,MIC,S. aureus [3]; read-out: MIC,0.5 mg/L
same,MIC,Enterococcus spp.; [8],> 64 mg/L
same,MIC,"Enterococcus spp.; E. faecalis MMX 8961, VRE, Lev^R Cip^R Ery^R, read-out: MIC",> 64 mg/L
same,MIC,Enterococcus spp.; [9],> 64 mg/L
same,MIC,Enterococcus spp.; [10],> 64 mg/L
same,MIC,Enterococcus spp.; [11],> 64 mg/L
C[C@@H](O)[C@H]1C(=O)N2C(C(=O)O)=C(S[C@@H]3CN[C@H](C(=O)N(C)C)C3)[C@H](C)[C@H]12 [Meropenem],FICB,P. aeruginosa; [12],1
same,MICB,P. aeruginosa; [12],16 µg/mL
same,FICB,P. aeruginosa; [13],0.25 and 0.5
same,MICB,P. aeruginosa; [13],4 µg/mL and 8 µg/mL
same,FICB,P. aeruginosa; [14],1
same,MICB,P. aeruginosa; [14],32 µg/mL
same,FICB,P. aeruginosa; [15],1
same,MICB,P. aeruginosa; [15],0.001 µg/mL
same,MIC,P. aeruginosa; P. aeruginosa 6977,8 mg/L
same,MIC,P. aeruginosa; P. aeruginosa 7745,16 mg/L
same,MIC,P. aeruginosa; P. aeruginosa 8798,32 mg/L
same,CLSI QC range of MIC,S. aureus [1],(0.03-0.12) μg/mL
same,CLSI QC range of MIC,S. pneumoniae [2],(0.06-0.25) μg/mL
same,FICB,"[4]; B. cenocepacia 548, FIC of Meropenem (Drug B) in combination with BisEDT",0.5 and 1
same,MICB,"[4]; B. cenocepacia 548, MIC of Meropenem (Drug B) in combination with BisEDT",2 µg/mL and 4 µg/mL
same,MIC,[4]; B. cenocepacia 548,4 mg/L
same,FICB,"[4]; B. cenocepacia 813, FIC of Meropenem (Drug B) in combination with BisEDT",0.5 and 1
same,MICB,"[4]; B. cenocepacia 813, MIC of Meropenem (Drug B) in combination with BisEDT",1 µg/mL and 2 µg/mL
same,MIC,[4]; B. cenocepacia 813,2 mg/L
same,FICB,"[4]; B. cepacia 546, Meropenem in combination with BisEDT, by checkerboard",1 and 2
same,FICB,[4]; [16],2 and 4
same,MICB,[4]; [16],8 µg/mL and 16 µg/mL
same,FICB,"[4]; B. multivorans 1795, FIC of Meropenem (Drug B) in combination with BisEDT",1
same,MICB,"[4]; B. multivorans 1795, MIC of Meropenem (Drug B) in combination with BisEDT",4 µg/mL
same,"MIC, CLSI QC range",[5],(0.25-1) μg/mL
same,"MIC, CLSI QC range",Enterobacteriaceae,(0.008-0.06) μg/mL
same,MIC,S. aureus [3]; read-out: MIC,0.06 mg/L
same,MIC,Enterococcus spp.; [8],8 mg/L
same,MIC,Enterococcus spp.; [9],2 mg/L
same,MIC,Enterococcus spp.; [10],> 64 mg/L
same,MIC,Enterococcus spp.; [11],> 64 mg/L
"CN[C@H](CC(C)C)C(=O)N[C@H]1C(=O)N[C@@H](CC(N)=O)C(=O)N[C@H]2C(=O)N[C@H]3C(=O)N[C@H](C(=O)N[C@H](C(=O)O)c4cc(O)cc(O)c4-c4cc3ccc4O)[C@H](O)c3ccc(c(Cl)c3)Oc3cc2cc(c3O[C@@H]2O[C@H](CO)[C@@H](O)[C@H](O)[C@H]2O[C@H]2C[C@](C)(N)[C@H](O)[C@H](C)O2)Oc2ccc(cc2Cl)[C@H]1O [vancomycin, reference compound]",CLSI QC range of MIC,S. aureus [1],(0.5-2) μg/mL
same,CLSI QC range of MIC,S. pneumoniae [2],(0.12-0.5) μg/mL
same,MIC,S. aureus [3],1 mg/L
same,MIC,"[6]; Streptococcus pyogenes, S. pyogenes MMX 3820, ERY^R CLI^R",0.5 mg/L
same,MIC,"[6]; Streptococcus pyogenes, S. pyogenes MMX 3919, ERY^R",0.5 mg/L
same,MIC,"[6]; Streptococcus pyogenes, S. pyogenes MMX 3929, ERY^R CC^R",0.5 mg/L
same,MIC,"[6]; Streptococcus pyogenes, S. pyogenes MMX 5091, ERY^R CC^R",0.5 mg/L
same,MIC,Enterococcus spp.,> 64 mg/L
same,MIC,"Enterococcus spp.; E. faecalis MMX 8960, VRE, Lev^R Cip^R Ery^R",>64 mg/L
same,MIC,"Enterococcus spp.; E. faecalis MMX 8962, VRE, Lev^R Cip^R Ery^R",>64 mg/L
same,MIC,"Enterococcus spp.; E. faecium MMX 485, VRE vanA, Lev^R Cip^R Ery^R",>64 mg/L
same,MIC,"Enterococcus spp.; E. faecium MMX 752, VRE vanA, Lev^R Cip^R Ery^R",>64 mg/L
Penicillin,MIC,"S. pneumoniae [7]; S. pneumoniae MMX 880, Lev^R SXT^R CC^R Ery^R Pen^R",2 mg/L
same,MIC,"S. pneumoniae [7]; S. pneumoniae MMX 937, Mem^R SXT^R CC^R Ery^R Per^R",4 mg/L
same,MIC,"S. pneumoniae [7]; S. pneumoniae MMX 3959, CC^R Ery^R",0.12 mg/L
same,MIC,"S. pneumoniae [7]; S. pneumoniae MMX 5440, Mem^R SXT^R CC^R Ery^R Pen^R",4 mg/L
same,MIC,"S. pneumoniae [7]; S. pneumoniae MMX 5445, Mem^R SXT^R CC^R Ery^R Pen^R",4 mg/L
same,MIC,"S. pneumoniae [7]; S. pneumoniae MMX 6837 (ATCC 49619), QC",0.25 mg/L
same,MIC,"S. pneumoniae [7]; S. pneumoniae MMX 8133, Mem^R SXT^R CC^R Ery^R Pen^R",4 mg/L
same,CLSI QC range of MIC,S. pneumoniae [2],(0.25-1) μg/mL
same,MIC,"[6]; S. agalactiae MMX 3741, ERY^R CC^R",0.03 mg/L
same,MIC,"[6]; S. agalactiae MMX 3743, ERY^R CC^R",0.06 mg/L
same,MIC,"[6]; S. agalactiae MMX 4077, ERY^R CC^R",0.06 mg/L
same,MIC,"[6]; S. agalactiae MMX 4079, ERY^R CC^R Pen^R MEM^R",2 mg/L
same,MIC,"[6]; S. agalactiae MMX 4086, ERY^R CC^R",0.06 mg/L
same,MIC,"[6]; S. pyogenes MMX 3068, Ery^R",≤0.008 mg/L
same,MIC,"[6]; S. pyogenes MMX 3820, ERY^R CLI^R",≤0.008 mg/L
same,MIC,"[6]; S. pyogenes MMX 3919, ERY^R",≤0.008 mg/L
same,MIC,"[6]; S. pyogenes MMX 3929, ERY^R CC^R",≤0.008 mg/L
same,MIC,"[6]; S. pyogenes MMX 5091, ERY^R CC^R",≤0.008 mg/L
